Tests used:
barnyardgrass = assay: Test B pre-/postemergence herbicide test; format: in vivo, Echinochloa crus-galli
Summary of the method: (§1)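 Formulation: non-phytotoxic solvent mix with surfactant. Timing: preemergence on seed and postemergence on 2–18 cm plants, applied concurrently. Readout after 13–15 d greenhouse: visual 0–100 control rating against controls.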

Surinam grass = assay: Test B pre-/postemergence herbicide test; format: in vivo, Urochloa decumbens; settings: for Surinam Grass plant response rating: postemergence, visual rating
Summary of the method: (§2)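 Visual rating, 0 (no effect) to 100 (complete control), versus untreated controls after 13–15 d in greenhouse. Pre- and postemergence applications (postemergence plants 2–18 cm, 1–4 leaves); flooded paddy arm at 2-leaf stage. Compounds in non-phytotoxic solvent plus surfactant.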

cocklebur = assay: Test B pre-/postemergence herbicide test; format: in vivo, Xanthium strumarium
Summary of the method: as §1

corn = assay: Test B pre-/postemergence herbicide test; format: in vivo, Zea mays
Summary of the method: as §2

large crabgrass = assay: Test B pre-/postemergence herbicide test; format: in vivo, Digitaria sanguinalis
Summary of the method: as §2

giant foxtail = assay: Test B pre-/postemergence herbicide test; format: in vivo, Setaria faberi
Summary of the method: as §2

lambsquarters = assay: Test B pre-/postemergence herbicide test; format: in vivo, Chenopodium album; settings: for Lambsquarters plant response rating: postemergence, visual rating
Summary of the method: as §2

pigweed = assay: Test B pre-/postemergence herbicide test; format: in vivo, Amaranthus retroflexus; settings: for Pigweed plant response rating: postemergence, visual rating
Summary of the method: as §2

velvetleaf = assay: Test B pre-/postemergence herbicide test; format: in vivo, Abutilon theophrasti; settings: for Velvetleaf plant response rating: postemergence, visual rating
Summary of the method: as §2

blackgrass = assay: Test B postemergence herbicide test; format: in vivo, Alopecurus myosuroides; settings: scale 0 (no effect) to 100 (complete control); for Plant response rating, Blackgrass: Postemergence, visual rating after 13 to 15 days; for Blackgrass plant response rating: postemergence, visual rating
Summary of the method: (§3)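 Scale 0–100: zero equals no visible effect, 100 complete control, judged by eye relative to controls. Timing: 13 to 15 days in greenhouse post-treatment. Growth stage at spraying: two leaves (paddy) or one to four leaves, 2–18 cm (postemergence).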

wheat = assay: Test B postemergence herbicide test; format: in vivo, Triticum aestivum; design: key to Wheat plant response rating: 0 = no effect, 100 = complete control; settings: scale 0 (no effect) to 100 (complete control); for Plant response rating, Wheat: Postemergence, visual rating after 13 to 15 days; for Wheat plant response rating: postemergence, visual rating
Summary of the method: (§4)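 Each value is a visual 0–100 response rating taken against controls 13 to 15 days after treatment in the greenhouse. Plants received formulated chemical postemergence at the 1- to 4-leaf stage or, in flooded paddy, at the 2-leaf stage.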

wild oat = assay: Test B postemergence herbicide test; format: in vivo, Avena fatua; settings: scale 0 (no effect) to 100 (complete control); for Plant response rating, Oat, Wild: Postemergence, visual rating after 13 to 15 days; for Oat, Wild plant response rating: postemergence, visual rating
Summary of the method: as §4

rice = assay: Test B flooded paddy test; format: in vivo, Oryza sativa; settings: 1000 g ai/ha, visual rating, scale 0 to 100 (0 no effect, 100 complete control), 13 to 15 days
Summary of the method: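 Read-out: visual comparison with controls, scored 0 to 100, where 100 means complete control and 0 no effect. Formulated chemicals were applied postemergence to plants 2–18 cm tall (1- to 4-leaf), or to flooded-paddy plants at the 2-leaf stage, then held 13 to 15 days under glass.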

[1] = test system: small flower umbrella sedge; assay: Test B flooded paddy test; format: in vivo, Cyperus difformis; settings: 1000 g ai/ha, visual rating, scale 0 to 100 (0 no effect, 100 complete control), 13 to 15 days
Summary of the method: as §3

ducksalad = assay: Test B flooded paddy test; format: in vivo, Heteranthera limosa; settings: 1000 g ai/ha, visual rating, scale 0 to 100 (0 no effect, 100 complete control), 13 to 15 days
Summary of the method: as §3

[2] = Postemergence, 500 g ai/ha, visual rating after 13 to 15 days, scale 0 (no effect) to 100 (complete control)
[3] = Preemergence, 500 g ai/ha, scale 0 to 100
[4] = postemergence, 125 g ai/ha, visual rating, scale 0 (no effect) to 100 (complete control)
[5] = preemergence, 125 g ai/ha, 0 to 100 scale, 0 is no effect, 100 is complete control
[6] = 125 g ai/ha, scale 0 (no effect) to 100 (complete control)
[7] = 500 g ai/ha, visual rating 0-100, 0 no effect, 100 complete control, preemergence
[8] = postemergence, 500 g ai/ha, visual rating, scale 0 (no effect) to 100 (complete control)
[9] = 500 g ai/ha, scale 0 (no effect) to 100 (complete control)

Structure (SMILES): C#CCOC(=O)c1cccc(NC(=O)c2cc(C(C)(C)C)nn2CC)c1 [Compound 84]
- Plant response rating, Barnyardgrass (barnyardgrass; [2]): 40
- Barnyardgrass plant response rating (barnyardgrass; [3]): 0
- Barnyardgrass plant response rating (barnyardgrass; [4]): 20
- Plant response rating, Barnyardgrass (barnyardgrass; [5]): 0
- Plant response rating, Surinam Grass (Surinam grass; [2]): 60
- Surinam Grass plant response rating (Surinam grass; [6]): 50
- Plant response rating, Surinam Grass (Surinam grass; [5]): 0
- Plant response rating, Cocklebur (cocklebur; [2]): 100
- Cocklebur plant response rating (cocklebur; [4]): 20
- Plant response rating, Cocklebur (cocklebur; [5]): 0
- Plant response rating, Corn (corn; [2]): 20
- Corn plant response rating (corn; [3]): 0
- Corn plant response rating (corn; [4]): 10
- Plant response rating, Corn (corn; [5]): 0
- Plant response rating, Crabgrass, Large (large crabgrass; [2]): 50
- Crabgrass, Large plant response rating (large crabgrass; [3]): 0
- Crabgrass, Large plant response rating (large crabgrass; [4]): 20
- Plant response rating, Crabgrass, Large (large crabgrass; [5]): 0
- Plant response rating, Foxtail, Giant (giant foxtail; [2]): 10
- Foxtail, Giant plant response rating (giant foxtail; [3]): 0
- Foxtail, Giant plant response rating (giant foxtail; [4]): 10
- Plant response rating, Foxtail, Giant (giant foxtail; [5]): 0
- Plant response rating, Lambsquarters (lambsquarters; [2]): 60
- Lambsquarters plant response rating (lambsquarters; [6]): 0
- Plant response rating, Lambsquarters (lambsquarters; [5]): 0
- Plant response rating, Pigweed (pigweed; [2]): 100
- Pigweed plant response rating (pigweed; [6]): 80
- Plant response rating, Pigweed (pigweed; [5]): 0
- Plant response rating, Velvetleaf (velvetleaf; [2]): 100
- Velvetleaf plant response rating (velvetleaf; [6]): 60
- Plant response rating, Velvetleaf (velvetleaf; [5]): 0
- Plant response rating, Blackgrass (blackgrass; 500 g ai/ha): 10
- Blackgrass plant response rating (blackgrass; 125 g ai/ha): 0
- Plant response rating, Wheat (wheat; 500 g ai/ha): 30
- Wheat plant response rating (wheat; 125 g ai/ha): 20
- Plant response rating, Oat, Wild (wild oat; 500 g ai/ha): 20
- Oat, Wild plant response rating (wild oat; 125 g ai/ha): 20
- Rice plant response rating (rice): 0
- Sedge, Umbrella plant response rating [1]: 70
- Ducksalad plant response rating (ducksalad): 20

Structure (SMILES): CCOC(=O)c1cccc(NC(=O)c2cc(C(C)(C)C)nn2CCF)c1 [Compound 79]
- Plant response rating, Barnyardgrass (barnyardgrass; [2]): 40
- Barnyardgrass plant response rating (barnyardgrass; [3]): 10
- Barnyardgrass plant response rating (barnyardgrass; [4]): 30
- Plant response rating, Barnyardgrass (barnyardgrass; [5]): 0
- Plant response rating, Surinam Grass (Surinam grass; [2]): 40
- Surinam Grass plant response rating (Surinam grass; [6]): 30
- Plant response rating, Surinam Grass (Surinam grass; [5]): 0
- Plant response rating, Cocklebur (cocklebur; [2]): 80
- Cocklebur plant response rating (cocklebur; [3]): 0
- Cocklebur plant response rating (cocklebur; [4]): 80
- Plant response rating, Cocklebur (cocklebur; [5]): 0
- Corn plant response rating (corn; [3]): 0
- Plant response rating, Corn (corn; [5]): 0
- Plant response rating, Crabgrass, Large (large crabgrass; [2]): 30
- Crabgrass, Large plant response rating (large crabgrass; [3]): 0
- Crabgrass, Large plant response rating (large crabgrass; [4]): 20
- Plant response rating, Crabgrass, Large (large crabgrass; [5]): 0
- Plant response rating, Foxtail, Giant (giant foxtail; [2]): 40
- Foxtail, Giant plant response rating (giant foxtail; [3]): 10
- Foxtail, Giant plant response rating (giant foxtail; [4]): 30
- Plant response rating, Foxtail, Giant (giant foxtail; [5]): 10
- Plant response rating, Lambsquarters (lambsquarters; [2]): 80
- Lambsquarters plant response rating (lambsquarters; [6]): 70
- Plant response rating, Lambsquarters (lambsquarters; [5]): 0
- Plant response rating, Pigweed (pigweed; [2]): 100
- Pigweed plant response rating (pigweed; [6]): 70
- Plant response rating, Pigweed (pigweed; [5]): 0
- Plant response rating, Velvetleaf (velvetleaf; [2]): 80
- Velvetleaf plant response rating (velvetleaf; [6]): 70
- Plant response rating, Velvetleaf (velvetleaf; [5]): 10
- Plant response rating, Blackgrass (blackgrass; 500 g ai/ha): 30
- Blackgrass plant response rating (blackgrass; 125 g ai/ha): 20
- Plant response rating, Wheat (wheat; 500 g ai/ha): 40
- Wheat plant response rating (wheat; 125 g ai/ha): 30
- Plant response rating, Oat, Wild (wild oat; 500 g ai/ha): 30
- Oat, Wild plant response rating (wild oat; 125 g ai/ha): 20
- Rice plant response rating (rice): 70
- Sedge, Umbrella plant response rating [1]: 90
- Ducksalad plant response rating (ducksalad): 80

Structure (SMILES): CCn1nc(C(C)(C)C)cc1C(=O)Nc1cccc(C#N)c1 [Compound 139]
- Plant response rating, Barnyardgrass (barnyardgrass; [7]): 90
- Barnyardgrass plant response rating (barnyardgrass; [4]): 10
- Barnyardgrass plant response rating (barnyardgrass; [8]): 10
- Plant response rating, Barnyardgrass (barnyardgrass; [5]): 80
- Plant response rating, Surinam Grass (Surinam grass; [7]): 90
- Surinam Grass plant response rating (Surinam grass; [6]): 10
- Surinam Grass plant response rating (Surinam grass; [9]): 20
- Plant response rating, Surinam Grass (Surinam grass; [5]): 30
- Plant response rating, Cocklebur (cocklebur; [7]): 10
- Cocklebur plant response rating (cocklebur; [4]): 20
- Cocklebur plant response rating (cocklebur; [8]): 100
- Plant response rating, Cocklebur (cocklebur; [5]): 0
- Plant response rating, Corn (corn; [7]): 40
- Corn plant response rating (corn; [4]): 10
- Corn plant response rating (corn; [8]): 20
- Plant response rating, Corn (corn; [5]): 10
- Plant response rating, Crabgrass, Large (large crabgrass; [7]): 100
- Crabgrass, Large plant response rating (large crabgrass; [4]): 10
- Crabgrass, Large plant response rating (large crabgrass; [8]): 20
- Plant response rating, Crabgrass, Large (large crabgrass; [5]): 60
- Plant response rating, Foxtail, Giant (giant foxtail; [7]): 100
- Foxtail, Giant plant response rating (giant foxtail; [4]): 10
- Foxtail, Giant plant response rating (giant foxtail; [8]): 20
- Plant response rating, Foxtail, Giant (giant foxtail; [5]): 70
- Plant response rating, Lambsquarters (lambsquarters; [7]): 100
- Lambsquarters plant response rating (lambsquarters; [6]): 80
- Lambsquarters plant response rating (lambsquarters; [9]): 90
- Plant response rating, Lambsquarters (lambsquarters; [5]): 100
- Plant response rating, Pigweed (pigweed; [7]): 100
- Pigweed plant response rating (pigweed; [6]): 60
- Pigweed plant response rating (pigweed; [9]): 90
- Plant response rating, Pigweed (pigweed; [5]): 90
- Plant response rating, Velvetleaf (velvetleaf; [7]): 80
- Velvetleaf plant response rating (velvetleaf; [6]): 20
- Velvetleaf plant response rating (velvetleaf; [9]): 60
- Plant response rating, Velvetleaf (velvetleaf; [5]): 50
- Blackgrass plant response rating (blackgrass; 125 g ai/ha): 0
- Blackgrass plant response rating (blackgrass; 500 g ai/ha): 10
- Wheat plant response rating (wheat; 500 g ai/ha): 10
- Oat, Wild plant response rating (wild oat; 125 g ai/ha): 10
- Oat, Wild plant response rating (wild oat; 500 g ai/ha): 10
- Rice plant response rating (rice): 50
- Sedge, Umbrella plant response rating [1]: 80
- Ducksalad plant response rating (ducksalad): 80

Reference: patent US20060069132A1, “Azolecarboxamide herbicides” (priority 2004, published 2006)
